These results are taken from patent US20080267948A1, “Croos-B Structure Binding Compounds” (priority 2005, published 2008).

“Also recorded” adds a separate entry of the source.

One experiment deals with T1, amyloid-β(1-40) E22Q (Homo sapiens, UniProt P05067, E693Q).
T1 construct: For similar ELISA's with DOVA and Aβ(1-40) E22Q, 1 μg/ml DOVA or Aβ was coated; purchased Peptide facility, Dutch Cancer Institute, Amsterdam; host or cells: synthetic peptide
The experiment in a line: ELISA binding of tPA to immobilized Aβ after pre-incubation with compounds. As to conditions: for influence on tPA binding to immobilized Aβ: Aβ first overlayed with compound (concentration series), then tPA; for % tPA binding (after compound incubation), Aβ: 1 μg/ml coated Aβ first exposed to 500 μg/ml compound, then 80 nM tPA, control = 100. How it is done:
(§1) Compounds were now diluted 10× in PBS/0.1% Tween20 (500 μg/ml compound). […] With this approach a further selection of the compounds was achieved. Now, compounds that at least interact with HB-AGE are selected. With the selection, similar binding assays are performed with misfolded OVA and Aβ. Finally, concentration series of the selected compounds are used in the binding studies.
In general terms: ELISA stands for enzyme-linked immunosorbent assay.

The subject of experiment [1] is misfolded proteins (Hb-AGE, Aβ). The experiment in a line: Binding of misfolded proteins from solution to immobilized small compounds (overall). To be noted: compounds coated on ELISA plates, Hb-AGE or Aβ in solution. How it is done:
To test the ability of the twelve selected compounds (see Table 7) to bind to misfolded proteins, the compounds were immobilized at 10/100/1000 μg/ml in the wells of 96-wells Greiner Microlon high binding plates, Nunc amino Immobilizer plates and Nunc Maxisorp plates. Compounds were coated in 100 mM NaHCO3 pH 9.6, 50 μl/well, 1 h at room temperature with agitation. As a control, wells were coated with buffer only. After blocking of the plates, wells were overlayed with solutions of 0.1/1/10 μg/ml Hb-AGE or 10/100 μg/ml Aβ, in binding buffer (PBS/0.1% Tween20). After washing, binding of Hb-AGE was assessed by overlaying wells with 1 μg/ml hybridoma antibody 4B5, which binds to glycations(^2), followed by RAMPO. Binding of Aβ was visualized using 500× diluted anti-Aβ antibodies (mouse antibody beta-amyloid Clone 6F/3D #M0872, lot 00003503, DAKOCytomation; β-amyloid (H-43) SC-9129, 200 μg/ml rabbit polyclonal IgG, Santa Cruz Biotechnology) and RAMPO/SWARPO in a 1:1 ratio. Finally, wells were overlayed with OPD/H2O2 solution, and H2SO4, before absorbance readings at 490 nm.

The target in the next experiment is T2, heat-denatured ovalbumin (Gallus gallus, UniProt P01012).
T2 construct: purchased Sigma A5503
T2 sequence (P01012 1-386): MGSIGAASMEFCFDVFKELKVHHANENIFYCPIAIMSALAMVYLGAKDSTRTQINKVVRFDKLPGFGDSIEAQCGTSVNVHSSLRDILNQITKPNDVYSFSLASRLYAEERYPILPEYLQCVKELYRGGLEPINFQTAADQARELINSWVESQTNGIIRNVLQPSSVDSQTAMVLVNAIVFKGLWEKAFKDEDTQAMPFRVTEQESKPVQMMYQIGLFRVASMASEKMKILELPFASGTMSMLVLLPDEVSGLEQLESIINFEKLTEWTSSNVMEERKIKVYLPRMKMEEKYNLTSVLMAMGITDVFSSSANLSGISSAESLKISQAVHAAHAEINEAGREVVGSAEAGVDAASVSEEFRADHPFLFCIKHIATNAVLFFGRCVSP
The experiment in a line: Thioflavin T fluorescence of ovalbumin and small compounds. More on the design: species or system chicken. The method, boiled down: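 Heat-denatured ovalbumin at 1 mg/ml in PBS, alone, with 1% v/v DMSO or with 1 mg/ml compound (also heat-denatured after compound addition), mixed 1:9 with 25 μM ThT in 50 mM glycine pH 9.0. Fluorescence read in duplicate at 435 nm excitation, 485 nm emission.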

For the next experiment, the target named is T3, Hb-AGE (Homo sapiens, UniProt P68871+P69905).
T3 construct: purchased Sigma-Aldrich H7379
T3 sequence (P69905 2-142 limits assumed): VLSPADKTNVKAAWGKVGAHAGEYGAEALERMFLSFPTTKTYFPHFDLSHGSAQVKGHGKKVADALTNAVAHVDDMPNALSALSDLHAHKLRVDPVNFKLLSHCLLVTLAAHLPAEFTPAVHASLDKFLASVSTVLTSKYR
T3 sequence (P68871 2-147 limits assumed): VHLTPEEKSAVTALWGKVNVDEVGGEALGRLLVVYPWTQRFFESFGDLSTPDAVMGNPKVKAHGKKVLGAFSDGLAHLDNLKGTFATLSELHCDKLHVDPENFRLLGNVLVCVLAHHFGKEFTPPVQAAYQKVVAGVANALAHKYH
The experiment in a line: ELISA binding of tPA to immobilized Hb-AGE after pre-incubation with compounds. As to conditions: then tPA; for influence on tPA binding to immobilized Hb-AGE: Hb-AGE first overlayed with compound (concentration series); for % tPA binding (after compound incubation), HbAGE: immobilized Hb-AGE first exposed to 500 μg/ml compound, control = 100. Here is the method: Compounds were now diluted 10× in PBS/0.1% Tween20 (500 μg/ml compound). […] With the selection, similar binding assays are performed with misfolded OVA and Aβ. Finally, concentration series of the selected compounds are used in the binding studies.

For experiment [2], the target named is T4, heat-denatured misfolded ovalbumin (DOVA) (Gallus gallus, UniProt P01012).
T4 construct: purchased Sigma A5503
T4 sequence (P01012 2-386 limits assumed): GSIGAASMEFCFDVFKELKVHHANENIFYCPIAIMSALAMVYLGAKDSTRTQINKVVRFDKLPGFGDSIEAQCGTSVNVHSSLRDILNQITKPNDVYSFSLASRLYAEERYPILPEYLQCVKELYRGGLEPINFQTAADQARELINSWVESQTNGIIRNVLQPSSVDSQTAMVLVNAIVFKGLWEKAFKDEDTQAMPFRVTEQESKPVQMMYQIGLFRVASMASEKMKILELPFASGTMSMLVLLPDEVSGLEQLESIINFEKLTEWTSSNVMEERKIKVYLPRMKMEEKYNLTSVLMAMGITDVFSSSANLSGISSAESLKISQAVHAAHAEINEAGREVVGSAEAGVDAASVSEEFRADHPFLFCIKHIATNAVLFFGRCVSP
The experiment in a line: ELISA binding of tPA to immobilized misfolded ovalbumin after pre-incubation with compounds. Further details: species or system chicken. As to conditions: for influence on tPA binding to immobilized misfolded OVA: misfolded OVA first overlayed with compound (concentration series), then tPA; for activity at 500 µg/mL: read-out: % tPA binding (after compound incubation), DOVA. Here is the method:
as §1

For another experiment, the target named is T5, ovalbumin (Gallus gallus, UniProt P01012).
T5 construct: purchased Sigma A5503
T5 sequence (P01012 1-386): T2 sequence (P01012 1-386)
The experiment in a line: Transmission electron microscopy of ovalbumin heated in the presence of small compounds. Further details: species or system chicken. As to conditions: 1 mg/ml ovalbumin heated with 1 mg/ml compound. Summed up:
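Ovalbumin at 1 mg/ml was applied to carbon-coated Formvar copper grids, washed with PBS and water, then stained 2 min in 2% methylcellulose with 0.4% uranyl acetate, pH 4. Grids were dried and imaged by TEM at 80 kV.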

T1 sequence (P05067 672-711 E693Q): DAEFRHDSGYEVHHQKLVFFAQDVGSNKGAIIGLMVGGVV

For the compound `O=c1oc2c(O)c(O)cc3c(=O)oc4c(O)c(O)cc1c4c23` [compound 117, Ellagic acid hydrate], the “influence on tPA binding to immobilized Aβ” value on amyloid-β(1-40) E22Q is reported as “Stimulated tPA binding to immobilized misfolded protein (Hb-”. In experiment [1], the “capture of misfolded protein from solution by immobilized compound” value (“capture of misfolded protein” for short) was “Capture of misfolded protein from solution”. Further, at heat-denatured ovalbumin (1 mg/ml compound, 1 mg/ml OVA), the “influence on Thioflavin T fluorescence with misfolded OVA” value (“influence … with misfolded OVA” for short) is “Inhibition on Thioflavin T fluorescence with misfolded OVA”. On heat-denatured ovalbumin (1 mg/ml compound, 1 mg/ml OVA, PBS/1% DMSO), the “reduction in Thioflavin T fluorescence enhancement, compound and OVA heated together” value is 90%. The inhibition at 1000 µg/mL on heat-denatured ovalbumin (1 mg/ml compound, 1 mg/ml OVA, PBS/1% DMSO, read-out: inhibition of Thioflavin T fluorescence, compound mixed with pre-formed misfolded OVA) is about 50%. Further, the “formation of Thioflavin T binding sites in heated OVA” value on heat-denatured ovalbumin (OVA and compound heated together) is given as “Inhibition of formation of Thioflavin T binding sites in heated”. The “influence on tPA binding to immobilized Hb-AGE” value at Hb-AGE was “Stimulated tPA binding to immobilized misfolded protein (Hb-”. Moreover, the “influence on tPA binding to immobilized misfolded OVA” value in experiment [2] was “Stimulated tPA binding to immobilized misfolded protein (Hb-”. Besides, the “appearance of ovalbumin heated in the presence of compound on TEM image” value (“appearance of ovalbumin heated” for short) on ovalbumin (hydrate) is “less OVA aggregates after heating in the presence of the; also recorded: Clusters of needle-like structures. No aggregates”.
With `COc1cc2c(cc1OC)-c1c(O)c(OC)cc3c1[C@H](C2)N(C)CC3` [compound 201, Thaliporphine, thalicmidine], the “% tPA binding (after compound incubation), Aβ” value at amyloid-β(1-40) E22Q was 400%. Further, the “capture of misfolded protein” value in experiment [1] was “Capture of misfolded protein from solution”. Also, on heat-denatured ovalbumin (1 mg/ml compound, 1 mg/ml OVA), the “influence … with misfolded OVA” value is “Inhibition of Thioflavin T fluorescence with misfolded OVA”. Moreover, on Hb-AGE, the “influence on tPA binding to immobilized Hb-AGE” value is reported as “Stimulated tPA binding to immobilized misfolded protein (Hb-” and the “% tPA binding (after compound incubation), HbAGE” value came out at 110%. In experiment [2], the activity at 500 µg/mL amounted to 400%. The “appearance of ovalbumin heated” value at ovalbumin is “Spherical aggregates with background of smaller”.
As to `COc1cc2c(cc1O)C[C@H]1c3c(cc(OC)c(O)c3-2)CCN1C` [compound 202, Isoboldine], on amyloid-β(1-40) E22Q, the “% tPA binding (after compound incubation), Aβ” value is reported as 250% and the “influence on tPA binding to immobilized Aβ” value is “Stimulated tPA binding to immobilized misfolded protein (Aβ,”. Besides, in experiment [1], the “capture of misfolded protein” value is “Capture of misfolded protein from solution”. Moreover, on heat-denatured ovalbumin (1 mg/ml compound, 1 mg/ml OVA), the “influence … with misfolded OVA” value is listed as “Inhibition on Thioflavin T fluorescence with misfolded OVA”. On Hb-AGE, the “influence on tPA binding to immobilized Hb-AGE” value is given as “Stimulated tPA binding to immobilized misfolded protein (Aβ,” and the “% tPA binding (after compound incubation), HbAGE” value is listed as 250%. In experiment [2], the “influence on tPA binding to immobilized misfolded OVA” value is “Stimulated tPA binding to immobilized misfolded protein (Aβ,” and the activity at 500 µg/mL is 420%. The “appearance of ovalbumin heated” value at ovalbumin is “Larger and more dense aggregates than control. Small”.
